From patent publication US10875844B2, “Salicylate inhibitors of MELK and methods of use” (priority 2015, dated 2020)

Target: T1, MELK (Homo sapiens, UniProt Q14680)
T1 construct: purchased Life Technologies
Test: Z′-LYTE biochemical assay (Life Technologies), MELK inhibition
Description: The invention also provides methods for inhibiting MELK, comprising contacting MELK with a compound of the invention in an amount effective to inhibit MELK. In certain embodiments, the method is conducted in vitro. In certain embodiments, the method is conducted in vivo. Inhibition of MELK can be determined by the Z′-LYTE® biochemical assay from Life Technologies (Life Technologies Z′-LYTE® Screening Protocol and Assay Conditions, June 2012, incorporated herein by reference).
The following compounds were made according to the general scheme shown in Example 1. IC50 against MELK was determined by Z′-LYTE® biochemical assay at 25 uM ATP concentration, and are measured in nM.

T1 sequence (Q14680 whole entry): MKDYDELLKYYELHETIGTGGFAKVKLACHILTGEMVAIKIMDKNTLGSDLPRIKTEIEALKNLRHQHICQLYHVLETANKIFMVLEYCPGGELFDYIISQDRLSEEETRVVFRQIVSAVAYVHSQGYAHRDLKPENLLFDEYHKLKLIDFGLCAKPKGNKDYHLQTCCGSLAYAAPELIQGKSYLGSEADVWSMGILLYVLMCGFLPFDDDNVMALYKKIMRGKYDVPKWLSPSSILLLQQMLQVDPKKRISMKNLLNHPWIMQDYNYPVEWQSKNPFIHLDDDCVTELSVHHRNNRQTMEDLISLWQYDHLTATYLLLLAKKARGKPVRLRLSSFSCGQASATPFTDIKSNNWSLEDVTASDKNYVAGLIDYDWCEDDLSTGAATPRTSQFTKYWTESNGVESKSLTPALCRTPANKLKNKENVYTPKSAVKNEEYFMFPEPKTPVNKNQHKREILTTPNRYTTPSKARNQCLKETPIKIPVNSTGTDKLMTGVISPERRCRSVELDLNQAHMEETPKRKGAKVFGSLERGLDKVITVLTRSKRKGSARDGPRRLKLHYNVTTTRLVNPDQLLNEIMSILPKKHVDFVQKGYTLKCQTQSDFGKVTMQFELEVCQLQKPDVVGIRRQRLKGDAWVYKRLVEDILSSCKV

Row | Structure (SMILES) | IC50
1 | O=C(Nc1cccc2c1CCNCC2)c1ccc(-c2cn[nH]c2)cc1OCc1ccccc1 [Compound 02-103] | 134 nM
2 | O=C(Nc1ccc2c(c1)CCNCC2)c1ccc(-c2cn[nH]c2)cc1OC1Cc2ccccc2C1 | 1.05 nM
3 | O=C(Nc1ccc2c(c1)CCNCC2)c1ccc(-c2cn[nH]c2)cc1OCC1CCCCC1 | 5.48 nM
4 | O=C(Nc1ccc2c(c1)CCNCC2)c1ccc(-c2cn[nH]c2)cc1OC1CCCCC1 | 2.99 nM
5 | O=C(Nc1ccc2c(c1)CCNCC2)c1ccc(-c2cn[nH]c2)cc1OCc1cccnc1 | 16.2 nM
6 | O=C(Nc1ccc2c(c1)CCNCC2)c1ccc(-c2cn[nH]c2)cc1OCCN1CCCC1=O | 80.6 nM
7 | O=C(Nc1ccc2c(c1)CCNCC2)c1ccc(-c2cn[nH]c2)cc1OC(CN1CCCC1)c1ccccc1 (centres unmarked) | 213 nM
8 | O=C(Nc1ccc2c(c1)CCNCC2)c1ccc(-c2cn[nH]c2)cc1OCCN1CCOCC1 | 85.3 nM
9 | O=C(Nc1ccc2c(c1)CCNCC2)c1ccc(-c2cn[nH]c2)cc1O | 68.8 nM
10 | O=C(Nc1ccc2c(c1)CCNCC2)c1ccc(-c2cn[nH]c2)cc1OCc1ccccc1 [Compound 02-102, 2-(benzyloxy)-4-(1H-pyrazol-4-yl)-N-(2,3,4,5-tetrahydro-1H-benzo[d]azepin-7-yl)benzamide] | 2.17 nM
11 | O=C(Nc1ccccc1)c1ccc(-c2cn[nH]c2)cc1OCc1ccccc1 | 1160 nM
12 | O=C(Nc1ccc2c(c1)CCNCC2)c1ccc(-c2cc(Cl)c(O)c(Cl)c2)cc1OCc1ccccc1 [Compound 02-104, 3-(benzyloxy)-3′,5′-dichloro-4′-hydroxy-N-(2,3,4,5-tetrahydro-1H-benzo[d]azepin-7-yl)-[1,1′-biphenyl]-4-carboxamide] | 1.92 nM
13 | CC(=O)N1CCc2ccc(NC(=O)c3ccc(-c4cn[nH]c4)cc3OCc3ccccc3)cc2CC1 [Compound 02-111, N-(3-acetyl-2,3,4,5-tetrahydro-1H-benzo[d]azepin-7-yl)-2-(benzyloxy)-4-(1H-pyrazol-4-yl)benzamide] | 60.6 nM
14 | O=C(Nc1ccc2c(c1)CCNCC2)c1ccc(-c2cn[nH]c2)cc1OCCN1CCCC1 | 75.1 nM
